Source: US12110289B2, “Heterocyclic compounds, preparation methods and uses thereof” (InventisBio Co., Ltd., priority 2020, dated 2024)

Tested on: Lung cancer cell line NCI-H358 containing KRas G12C mutation
Experiment: Assay for cell proliferation (Cell-titer Glo, 5 days)
Assay type: cell-based, human
Conditions: Homo sapiens, NCI-H358, 120 h, NCI-H358, 5 days, Cell-titer Glo; read-out: IC50 (nM), Inhibition of NCI-H358 Cell Proliferation
Procedure: One hundred fifty microliter (150 μL) of media containing 2000 cells per well were seeded into each well of a 96-well culture plate and left to attach overnight in a 37° C. incubator with 5% CO2. Diluted compounds of 0.75 μL for each well were added by liquid handler at a final concentration of 0.5% DMSO. Cells were treated for 5 days in the incubator. Cell-titer Glo (CTG) kit (Promega) was used to assess cell proliferation. Of note, 120 μL of CTG reagent was added to each well and incubated at RT for 10 minutes.

`C=CC(=O)N1CCN(c2nc(=O)n(-c3c(C4CC4)nc(NC(C)=O)nc3C3CC3)c3nc(-c4ccccc4F)c(F)cc23)[C@@H](C)C1` [Compound 35] and `C=CC(=O)N1CCN(c2nc(=O)n(-c3c(C4CC4)nc(OC)nc3C3CC3)c3nc(-c4ccccc4F)c(F)cc23)[C@@H](C)C1` [Compound 61] are within 1.5-fold of each other in IC50: 58.2 nM for the first, 71.2 nM for the second.

`C=CC(=O)N1CCN(c2nc(=O)n(-c3c(C4CC4)ncnc3C3CC3)c3nc(-c4cccc5[nH]nc(N)c45)c(F)cc23)[C@@H](C)C1` [Compound 36] and `C=CC(=O)N1C[C@H](C)N(c2nc(=O)n(-c3c(C4CC4)ncnc3C3CC3)c3nc(-c4cccc5[nH]nc(N)c45)c(F)cc23)C[C@H]1C` [Compound 37] cannot be ordered by IC50: greater than 3000 nM for the first, greater than 3000 nM for the second.

Compared with `C=CC(=O)N1[C@H](C)CN(c2nc(=O)n(-c3c(C4CC4)ncnc3C3CC3)c3nc(-c4cccc5[nH]nc(N)c45)c(F)cc23)C[C@@H]1C` [Compound 38], `C=CC(=O)N1[C@H](C)CN(c2nc(=O)n(-c3c(C4CC4)ncnc3C3CC3)c3nc(-c4c(N)cccc4F)c(F)cc23)C[C@@H]1C` [Compound 47] is lower in IC50: greater than 3000 nM for the first, 23.8 nM for the second.

`C=CC(=O)N1CCN(c2nc(=O)n(-c3c(C4CC4)ncnc3C3CC3)c3nc(-c4ccccc4F)c(F)cc23)[C@@H](C)C1` [Compound 39] and `C=CC(=O)N1C[C@H](C)N(c2nc(=O)n(-c3c(C4CC4)ncnc3C3CC3)c3nc(-c4ccccc4F)c(F)cc23)C[C@H]1C` [Compound 42] are within 1.5-fold of each other in IC50: 38.2 nM for the first, 39.5 nM for the second.

Going from `C=CC(=O)N1C[C@H](C)N(c2nc(=O)n(-c3c(C4CC4)ncnc3C3CC3)c3nc(-c4c(O)cccc4F)c(F)cc23)C[C@H]1C` [Compound 43] to `C=CC(=O)N1[C@H](C)CN(c2nc(=O)n(-c3c(C4CC4)ncnc3C3CC3)c3nc(-c4c(O)cccc4F)c(F)cc23)C[C@@H]1C` [Compound 46], the IC50 rises from 15.5 nM to 81.5 nM (5.3-fold). The first is the more potent here.

Compared with `C=CC(=O)N1[C@H](C)CN(c2nc(=O)n(-c3c(C4CC4)ncnc3C3CC3)c3nc(-c4ccccc4F)c(F)cc23)C[C@@H]1C` [Compound 45], `C=CC(=O)N1[C@H](C)CN(c2nc(=O)n(-c3c(C4CC4)nc(C)nc3C3CC3)c3nc(-c4ccccc4F)c(F)cc23)C[C@@H]1C` [Compound 53] is 2.1-fold higher in IC50: 299 nM for the first, 617 nM for the second.

`C=CC(=O)N1CCN(c2nc(=O)n(-c3c(C(C)C)nc(C)nc3C(C)C)c3nc(-c4ccccc4F)c(F)cc23)[C@@H](C)C1` [Compound 48] and `C=CC(=O)N1CCN(c2nc(=O)n(-c3c(C(C)C)nc(N(C)S(C)(=O)=O)nc3C(C)C)c3nc(-c4ccccc4F)c(F)cc23)[C@@H](C)C1` [Compound 56] are within 1.5-fold of each other in IC50: 25.8 nM for the first, 27 nM for the second.

Compared with `C=CC(=O)N1C[C@H](C)N(c2nc(=O)n(-c3c(C(C)C)nc(C)nc3C(C)C)c3nc(-c4ccccc4F)c(F)cc23)C[C@H]1C` [Compound 49], `C=CC(=O)N1C[C@H](C)N(c2nc(=O)n(-c3c(C4CC4)nc(C)nc3C3CC3)c3nc(-c4ccccc4F)c(F)cc23)C[C@H]1C` [Compound 50] is 4.3-fold higher in IC50: 25 nM for the first, 107 nM for the second. The first is the more potent here.

First: C=CC(=O)N1C[C@H](C)N(c2nc(=O)n(-c3c(C4CC4)nc(C)nc3C3CC3)c3nc(-c4c(N)cccc4F)c(F)cc23)C[C@H]1C [Compound 51]
Second: C=CC(=O)N1[C@H](C)CN(c2nc(=O)n(-c3c(C4CC4)nc(C)nc3C3CC3)c3nc(-c4c(N)cccc4F)c(F)cc23)C[C@@H]1C [Compound 54]
The IC50 of the first is 2.8-fold lower: 12.5 nM for the first, 34.6 nM for the second. The first is the more potent here.

Going from `C=CC(=O)N1[C@H](C)CN(c2nc(=O)n(-c3c(C4CC4)nc(C)nc3C3CC3)c3nc(-c4c(O)cccc4F)c(F)cc23)C[C@@H]1C` [Compound 55] to `C=CC(=O)N1CCN(c2nc(=O)n(-c3c(C4CC4)nc(OC)nc3C3CC3)c3nc(-c4c(O)cccc4F)c(F)cc23)[C@@H](C)C1` [Compound 62], the IC50 falls from 74.3 nM to 15.9 nM (4.7-fold).

Compared with `C=CC(=O)N1CCN(c2nc(=O)n(-c3c(C)ccnc3C(C)C)c3nc(-c4cccc5[nH]nc(N)c45)c(F)cc23)[C@@H](C)C1` [Compound 59], `C=CC(=O)N1CCN(c2nc(=O)n(-c3c(C)cc(S(C)(=O)=O)nc3C(C)C)c3nc(-c4c(O)cccc4F)c(F)cc23)[C@@H](C)C1` [Compound 60] is lower in IC50: greater than 3000 nM for the first, 81.7 nM for the second.

Same assay, conditions: NCI-H358, 5 days, Cell-titer Glo; read-out: IC50 (nM), Inhibition of NCI-H358 Cell Proliferation

`C=CC(=O)N1C[C@H](C)N(c2nc(=O)n(-c3c(C4CC4)ncnc3C3CC3)c3nc(-c4ccccc4F)c(F)cc23)C[C@H]1C` [Compound 42] gave an IC50 of 38.5 nM.
